Experimental data as given in PubChem BioAssay AID1259407 (Chemical Carcinogenesis Research Information System (CCRIS), 2018).
Activity calls are given as the source filed them. No rule for the calls is given here.

System: CCRIS mutagenicity, Ames/micronucleus/aberration tests
Experiment: CCRIS mutagenicity studies
[1] = Test System: AMES SALMONELLA TYPHIMURIUM, Strain/Indicator: TA98, Metabolic Activation: NONE, Method: STANDARD PLATE
[2] = Test System: AMES SALMONELLA TYPHIMURIUM, Strain/Indicator: TA100, Metabolic Activation: NONE, Method: STANDARD PLATE

Measured: mutagenic call

C=C(C)C(=O)OCCCC
inactive: Test System: AMES SALMONELLA TYPHIMURIUM, Strain/Indicator: TA98, Metabolic Activation: HAMSTER, LIVER, S-9, AROCLOR 1254 (10%), Method: PREINCUBATION inactive; negative | Test System: AMES SALMONELLA TYPHIMURIUM, Strain/Indicator: TA98, Metabolic Activation: NONE, Method: PREINCUBATION inactive; negative | [1] inactive; negative | Test System: AMES SALMONELLA TYPHIMURIUM, Strain/Indicator: TA98, Metabolic Activation: RAT LIVER S-9, PHENOBARBITAL AND BETA-NAPHTHOFLAVONE, Method: PREINCUBATION inactive; negative | Test System: AMES SALMONELLA TYPHIMURIUM, Strain/Indicator: TA98, Metabolic Activation: RAT, LIVER, S-9, AROCLOR 1254 (10%), Method: PREINCUBATION inactive; negative | Test System: AMES SALMONELLA TYPHIMURIUM, Strain/Indicator: TA98, Metabolic Activation: RAT, LIVER, S-9, AROCLOR 1254, Method: STANDARD PLATE inactive; negative | Test System: AMES SALMONELLA TYPHIMURIUM, Strain/Indicator: TA98, Metabolic Activation: RAT, LIVER, S-9, SODIUM PHENOBARBITAL, Method: STANDARD PLATE inactive; negative | Test System: AMES SALMONELLA TYPHIMURIUM, Strain/Indicator: TA100, Metabolic Activation: HAMSTER, LIVER, S-9, AROCLOR 1254 (10%), Method: PREINCUBATION inactive; negative | Test System: AMES SALMONELLA TYPHIMURIUM, Strain/Indicator: TA100, Metabolic Activation: NONE, Method: PREINCUBATION inactive; negative | [2] inactive; negative | Test System: AMES SALMONELLA TYPHIMURIUM, Strain/Indicator: TA100, Metabolic Activation: RAT LIVER S-9, PHENOBARBITAL AND BETA-NAPHTHOFLAVONE, Method: PREINCUBATION inactive; negative | Test System: AMES SALMONELLA TYPHIMURIUM, Strain/Indicator: TA100, Metabolic Activation: RAT, LIVER, S-9, AROCLOR 1254 (10%), Method: PREINCUBATION inactive; negative | Test System: AMES SALMONELLA TYPHIMURIUM, Strain/Indicator: TA100, Metabolic Activation: RAT, LIVER, S-9, AROCLOR 1254, Method: STANDARD PLATE inactive; negative | Test System: AMES SALMONELLA TYPHIMURIUM, Strain/Indicator: TA100, Metabolic Activation: RAT, LIVER, S-9, SODIUM PHENOBARBITAL, Method: STANDARD PLATE inactive; negative | Test System: AMES SALMONELLA TYPHIMURIUM, Strain/Indicator: TA1535, Metabolic Activation: HAMSTER, LIVER, S-9, AROCLOR 1254 (10%), Method: PREINCUBATION inactive; negative | Test System: AMES SALMONELLA TYPHIMURIUM, Strain/Indicator: TA1535, Metabolic Activation: NONE, Method: PREINCUBATION inactive; negative | Test System: AMES SALMONELLA TYPHIMURIUM, Strain/Indicator: TA1535, Metabolic Activation: NONE, Method: STANDARD PLATE inactive; negative | Test System: AMES SALMONELLA TYPHIMURIUM, Strain/Indicator: TA1535, Metabolic Activation: RAT LIVER S-9, PHENOBARBITAL AND BETA-NAPHTHOFLAVONE, Method: PREINCUBATION inactive; negative | Test System: AMES SALMONELLA TYPHIMURIUM, Strain/Indicator: TA1535, Metabolic Activation: RAT, LIVER, S-9, AROCLOR 1254 (10%), Method: PREINCUBATION inactive; negative | Test System: AMES SALMONELLA TYPHIMURIUM, Strain/Indicator: TA1535, Metabolic Activation: RAT, LIVER, S-9, AROCLOR 1254, Method: STANDARD PLATE inactive; negative | Test System: AMES SALMONELLA TYPHIMURIUM, Strain/Indicator: TA1535, Metabolic Activation: RAT, LIVER, S-9, SODIUM PHENOBARBITAL, Method: STANDARD PLATE inactive; negative | Test System: AMES SALMONELLA TYPHIMURIUM, Strain/Indicator: TA1537, Metabolic Activation: HAMSTER, LIVER, S-9, AROCLOR 1254 (10%), Method: PREINCUBATION inactive; negative | Test System: AMES SALMONELLA TYPHIMURIUM, Strain/Indicator: TA1537, Metabolic Activation: NONE, Method: PREINCUBATION inactive; negative | Test System: AMES SALMONELLA TYPHIMURIUM, Strain/Indicator: TA1537, Metabolic Activation: NONE, Method: STANDARD PLATE inactive; negative | Test System: AMES SALMONELLA TYPHIMURIUM, Strain/Indicator: TA1537, Metabolic Activation: RAT LIVER S-9, PHENOBARBITAL AND BETA-NAPHTHOFLAVONE, Method: PREINCUBATION inactive; negative | Test System: AMES SALMONELLA TYPHIMURIUM, Strain/Indicator: TA1537, Metabolic Activation: RAT, LIVER, S-9, AROCLOR 1254 (10%), Method: PREINCUBATION inactive; negative | Test System: AMES SALMONELLA TYPHIMURIUM, Strain/Indicator: TA1537, Metabolic Activation: RAT, LIVER, S-9, AROCLOR 1254, Method: STANDARD PLATE inactive; negative | Test System: AMES SALMONELLA TYPHIMURIUM, Strain/Indicator: TA1537, Metabolic Activation: RAT, LIVER, S-9, SODIUM PHENOBARBITAL, Method: STANDARD PLATE inactive; negative | Test System: AMES SALMONELLA TYPHIMURIUM, Strain/Indicator: TA1538, Metabolic Activation: NONE, Method: STANDARD PLATE inactive; negative | Test System: AMES SALMONELLA TYPHIMURIUM, Strain/Indicator: TA1538, Metabolic Activation: RAT, LIVER, S-9, AROCLOR 1254, Method: STANDARD PLATE inactive; negative | Test System: AMES SALMONELLA TYPHIMURIUM, Strain/Indicator: TA1538, Metabolic Activation: RAT, LIVER, S-9, SODIUM PHENOBARBITAL, Method: STANDARD PLATE inactive; negative | Test System: E.COLI, Strain/Indicator: WP2UVRA/PKM101, Metabolic Activation: NONE, Method: PREINCUBATION inactive; negative | Test System: E.COLI, Strain/Indicator: WP2UVRA/PKM101, Metabolic Activation: RAT LIVER S-9, PHENOBARBITAL AND BETA-NAPHTHOFLAVONE, Method: PREINCUBATION inactive; negative

Cc1ccc(C)c(N=Nc2c(O)ccc3ccccc23)c1
inactive: [1] inactive; negative | Test System: AMES SALMONELLA TYPHIMURIUM, Strain/Indicator: TA98, Metabolic Activation: RAT, LIVER, S-9, Method: STANDARD PLATE inactive; negative | [2] inactive; negative | Test System: AMES SALMONELLA TYPHIMURIUM, Strain/Indicator: TA100, Metabolic Activation: RAT, LIVER, S-9, Method: STANDARD PLATE inactive; negative
